One series relates to dermal fibroblasts. The series can be described thus: MTT viability assay, normal cells. The settings on record: 2 donors, 72 h. Format: cell-based, human. As for the experimental part: Cell viability of primary samples
HS5-GFP human bone marrow stromal cells were plated and cultured for 72 hours to near confluence.
MOLM13 cells were then seeded onto HS5-GFP cells to establish a co-culture. Twenty-four hours later, cells were treated with increasing concentrations of drug for an additional 72 hours. MOLM13 and HS5-GFP cells were then separated and MTT assay s were performed for cell viability assessment of each cell population.
For murine or human primary AML cells, 100,000 cells/well were plated in a 96-well plate and treated with increasing concentrations of drug. Cell viability, via trypan blue, was measured every 24 hours. If the viability fell below 50% or at 72 hours of treatment, whichever came earlier, cell viability of each plate was measured via CellTiter-Glo. Primary human AML cells were obtained from the OSUCCC Leukemia Tissue Bank Shared […]
For primary human fibroblasts, cells were plated at 10,000 cells/well in a 96-well plate and cultured for 24 hours. After 24 hours, cells were treated with drug for 72 hours. A MTT assay was performed to assess cell […]
Primary AML samples were analyzed by targeted gene sequencing of 80 genes, as previously described (1). Samples were pooled and analyzed on a MiSeq system using the Illuminia MiSeq Reagent Kit v3. Ill umina Isis Banded Smith Waterman aligner and hg19 genome were used to align the sequences. […]
(In general: Tetrazolium assays rely on reduction of a dye to a coloured formazan, in cell work by metabolically active cells.)

The subject of series [1] is MV4-11, MOLM13, and MOLM13-RES cells. As to the kind of experiment: CD11b expression assay. It is filed as cell-based, human. Conditions: 20 nM, 72 hours. As for the experimental part: Apoptosis and CD11b expression assays
At indicated time points, cells were collected and washed with PBS. CD11b expression was measured using anti-CD11b -APC antibody (BioLegend, San Diego, CA). Each sample was suspended in 100uL of FACS buffer (PBS + 4% FBS) with 1uL of antibody, incubated on ice for 15 minutes in the dark and washed once in PBS. DAPI (final concentration 1ug/mL [ThermoFisher Scientific]) was added to each sample as a viability dye. For apoptosis assay, cells were incubated with annexin V-APC (BioLegend) according to manufacturer’s instructions. CD11b expression and apoptosis were measured by BD LSR II flow cytometer. Two-color cytometry was performed, and data were […]
points, cells were collected and washed with 0.1% EDTA PBS (Ricca Chemical Company, Arlington, TX) followed by only PBS. Cells were then fixed on ice with ice-cold 70% ethanol for 30 minutes . Cells were either stored at -20°C for up to 1 month or processed immediately. Cells were spun down at 450 x g for 10 minutes and stained

A further series addresses AKT1 (Homo sapiens, UniProt P31749). As to the kind of experiment: KiNativ, OCI cells live cell. It is filed as cell-based. Conditions: 2 h, labeling site ATP Loop, peptide […].
Another series deals with BRAF (Homo sapiens, UniProt P15056). The series can be described thus: KiNativ, OCI cells live cell. Format: cell-based. The settings on record: 2 h, labeling site Lys2, peptide […].
BRAF, sequence (P15056 whole entry): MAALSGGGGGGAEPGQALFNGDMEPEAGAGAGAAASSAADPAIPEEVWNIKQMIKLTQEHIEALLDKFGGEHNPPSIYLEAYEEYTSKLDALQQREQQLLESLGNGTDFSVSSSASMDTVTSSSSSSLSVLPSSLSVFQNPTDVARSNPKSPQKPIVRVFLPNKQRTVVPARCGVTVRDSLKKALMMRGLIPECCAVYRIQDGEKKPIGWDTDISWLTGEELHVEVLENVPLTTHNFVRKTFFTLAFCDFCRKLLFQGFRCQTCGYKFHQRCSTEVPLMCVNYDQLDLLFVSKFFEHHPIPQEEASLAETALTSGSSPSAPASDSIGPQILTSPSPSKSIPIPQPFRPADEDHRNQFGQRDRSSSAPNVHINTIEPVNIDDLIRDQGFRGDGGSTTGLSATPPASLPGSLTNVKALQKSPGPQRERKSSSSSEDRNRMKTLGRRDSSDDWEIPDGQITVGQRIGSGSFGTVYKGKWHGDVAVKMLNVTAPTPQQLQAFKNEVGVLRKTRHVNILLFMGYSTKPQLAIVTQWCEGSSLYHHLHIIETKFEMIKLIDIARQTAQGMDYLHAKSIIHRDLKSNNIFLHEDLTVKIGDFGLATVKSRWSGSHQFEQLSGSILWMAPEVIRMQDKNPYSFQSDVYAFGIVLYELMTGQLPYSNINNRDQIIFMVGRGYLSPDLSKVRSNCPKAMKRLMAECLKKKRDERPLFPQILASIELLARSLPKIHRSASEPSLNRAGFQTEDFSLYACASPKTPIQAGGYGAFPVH
For another series, the target named is T1, IRAK3 (Homo sapiens, UniProt Q9Y616).
T1 sequence (Q9Y616 1-596): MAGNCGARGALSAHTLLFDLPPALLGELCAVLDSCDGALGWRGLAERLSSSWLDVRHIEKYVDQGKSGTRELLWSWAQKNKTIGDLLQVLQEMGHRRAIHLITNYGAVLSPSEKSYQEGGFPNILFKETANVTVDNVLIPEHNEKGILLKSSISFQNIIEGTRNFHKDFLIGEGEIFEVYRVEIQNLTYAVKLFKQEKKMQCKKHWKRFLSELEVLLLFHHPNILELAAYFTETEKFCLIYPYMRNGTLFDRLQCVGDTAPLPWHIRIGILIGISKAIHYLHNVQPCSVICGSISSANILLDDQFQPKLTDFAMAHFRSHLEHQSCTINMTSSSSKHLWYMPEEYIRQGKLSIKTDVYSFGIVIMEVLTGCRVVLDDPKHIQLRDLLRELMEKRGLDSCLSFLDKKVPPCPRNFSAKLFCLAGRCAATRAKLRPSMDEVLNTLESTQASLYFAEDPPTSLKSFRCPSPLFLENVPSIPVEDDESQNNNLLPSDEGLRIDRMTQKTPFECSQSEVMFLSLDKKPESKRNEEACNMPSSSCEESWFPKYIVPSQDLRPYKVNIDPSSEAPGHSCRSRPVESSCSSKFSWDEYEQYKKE
As to the kind of experiment: KiNativ, OCI cells live cell. Conditions: 2 h. Format: cell-based.

In another series the target is LKB1 (Homo sapiens, UniProt Q15831). The series can be described thus: KiNativ, OCI cells live cell. Format: cell-based. Conditions: 2 h, labeling site Lys2, peptide […].
LKB1, sequence (Q15831 1-430 limits assumed): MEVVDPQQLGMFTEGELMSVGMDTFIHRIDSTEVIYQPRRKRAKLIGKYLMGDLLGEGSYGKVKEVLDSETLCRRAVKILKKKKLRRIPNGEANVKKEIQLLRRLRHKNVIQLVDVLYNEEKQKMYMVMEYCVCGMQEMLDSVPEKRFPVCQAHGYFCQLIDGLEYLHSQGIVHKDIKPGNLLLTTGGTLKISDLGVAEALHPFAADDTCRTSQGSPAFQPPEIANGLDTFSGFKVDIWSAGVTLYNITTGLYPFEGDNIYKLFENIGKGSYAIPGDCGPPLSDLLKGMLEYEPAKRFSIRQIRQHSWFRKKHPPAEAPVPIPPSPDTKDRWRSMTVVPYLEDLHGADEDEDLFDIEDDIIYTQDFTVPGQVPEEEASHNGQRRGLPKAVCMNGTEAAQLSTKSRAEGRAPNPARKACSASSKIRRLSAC
LKB1, sequence (Q7RTN6 whole entry partner): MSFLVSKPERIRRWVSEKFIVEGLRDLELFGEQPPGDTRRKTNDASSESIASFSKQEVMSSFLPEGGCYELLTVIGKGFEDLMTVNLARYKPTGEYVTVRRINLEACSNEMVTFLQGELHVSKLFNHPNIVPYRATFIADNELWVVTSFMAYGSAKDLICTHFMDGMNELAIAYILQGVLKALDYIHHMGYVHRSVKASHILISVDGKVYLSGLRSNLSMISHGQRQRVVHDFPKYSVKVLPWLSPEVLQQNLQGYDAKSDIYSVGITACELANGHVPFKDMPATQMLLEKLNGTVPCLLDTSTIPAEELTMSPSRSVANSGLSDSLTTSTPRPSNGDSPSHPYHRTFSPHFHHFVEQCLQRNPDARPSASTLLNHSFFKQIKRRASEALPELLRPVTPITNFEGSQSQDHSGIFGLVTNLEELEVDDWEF
LKB1, sequence (Q9Y376 whole entry partner): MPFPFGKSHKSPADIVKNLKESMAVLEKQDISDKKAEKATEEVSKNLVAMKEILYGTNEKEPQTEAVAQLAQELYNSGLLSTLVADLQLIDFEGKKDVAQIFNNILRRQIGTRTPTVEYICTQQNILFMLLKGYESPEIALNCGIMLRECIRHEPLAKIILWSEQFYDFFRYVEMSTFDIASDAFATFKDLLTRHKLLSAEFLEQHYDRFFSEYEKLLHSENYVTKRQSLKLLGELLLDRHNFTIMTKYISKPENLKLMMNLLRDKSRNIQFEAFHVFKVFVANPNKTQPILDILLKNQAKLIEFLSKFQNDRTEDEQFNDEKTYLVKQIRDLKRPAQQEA
In the next series the target is MAP3K6 (Homo sapiens, UniProt O95382). As to the kind of experiment: KiNativ, OCI cells live cell. It is filed as cell-based. The settings on record: 2 h, labeling site Lys2, peptide […].
MAP3K6, sequence (O95382 whole entry): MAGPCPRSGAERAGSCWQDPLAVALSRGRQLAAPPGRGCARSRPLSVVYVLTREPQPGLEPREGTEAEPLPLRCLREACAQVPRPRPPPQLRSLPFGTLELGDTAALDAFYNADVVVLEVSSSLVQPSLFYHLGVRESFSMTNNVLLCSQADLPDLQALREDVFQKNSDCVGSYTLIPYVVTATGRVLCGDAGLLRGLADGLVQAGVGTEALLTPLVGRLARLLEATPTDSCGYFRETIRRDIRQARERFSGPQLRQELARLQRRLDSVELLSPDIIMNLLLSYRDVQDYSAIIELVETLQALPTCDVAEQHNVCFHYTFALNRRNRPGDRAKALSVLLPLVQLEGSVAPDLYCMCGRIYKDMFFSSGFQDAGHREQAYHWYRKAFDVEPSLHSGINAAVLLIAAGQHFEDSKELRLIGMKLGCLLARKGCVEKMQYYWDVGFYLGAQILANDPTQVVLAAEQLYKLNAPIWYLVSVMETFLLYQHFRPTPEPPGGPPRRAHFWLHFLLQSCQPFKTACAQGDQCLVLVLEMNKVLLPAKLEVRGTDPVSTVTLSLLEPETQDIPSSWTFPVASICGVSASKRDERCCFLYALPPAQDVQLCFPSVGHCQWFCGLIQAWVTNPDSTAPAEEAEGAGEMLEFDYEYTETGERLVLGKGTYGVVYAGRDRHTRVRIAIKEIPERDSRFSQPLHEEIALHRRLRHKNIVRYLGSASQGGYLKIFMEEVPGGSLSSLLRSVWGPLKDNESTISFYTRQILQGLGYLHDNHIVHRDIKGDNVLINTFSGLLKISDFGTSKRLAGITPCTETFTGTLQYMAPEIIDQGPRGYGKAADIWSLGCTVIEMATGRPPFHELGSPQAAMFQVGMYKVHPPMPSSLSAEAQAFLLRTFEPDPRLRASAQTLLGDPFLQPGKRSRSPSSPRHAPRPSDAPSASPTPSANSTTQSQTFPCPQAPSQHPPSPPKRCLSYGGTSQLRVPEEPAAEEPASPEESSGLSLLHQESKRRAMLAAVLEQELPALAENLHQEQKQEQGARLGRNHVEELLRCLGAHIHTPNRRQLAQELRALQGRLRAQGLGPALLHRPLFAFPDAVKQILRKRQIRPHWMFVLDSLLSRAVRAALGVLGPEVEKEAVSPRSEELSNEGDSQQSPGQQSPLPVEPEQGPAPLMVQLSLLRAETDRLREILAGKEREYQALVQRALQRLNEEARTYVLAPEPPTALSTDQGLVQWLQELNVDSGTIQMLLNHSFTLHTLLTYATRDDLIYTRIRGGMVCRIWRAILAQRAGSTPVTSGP
A further series deals with T2, MLKL (Homo sapiens, UniProt Q8NB16).
T2 sequence (Q8NB16 1-471): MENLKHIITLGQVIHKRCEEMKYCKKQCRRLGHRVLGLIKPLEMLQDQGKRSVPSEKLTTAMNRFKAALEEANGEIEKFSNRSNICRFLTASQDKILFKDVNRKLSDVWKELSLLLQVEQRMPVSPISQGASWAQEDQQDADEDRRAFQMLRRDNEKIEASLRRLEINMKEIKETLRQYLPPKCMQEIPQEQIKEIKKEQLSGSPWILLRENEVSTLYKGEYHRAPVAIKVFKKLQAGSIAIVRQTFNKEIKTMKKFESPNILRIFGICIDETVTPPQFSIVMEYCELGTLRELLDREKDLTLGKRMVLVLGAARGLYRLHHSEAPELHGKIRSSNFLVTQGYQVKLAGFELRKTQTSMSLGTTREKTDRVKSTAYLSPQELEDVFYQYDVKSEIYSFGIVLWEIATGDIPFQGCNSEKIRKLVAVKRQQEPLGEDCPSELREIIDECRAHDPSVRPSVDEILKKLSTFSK
The series can be described thus: KiNativ, OCI cells live cell. Format: cell-based. The settings on record: 2 h, labeling site Lys1, peptide […].

In another series the target is T3, RSK1 domain2 (Homo sapiens, UniProt Q15418).
T3 construct: RSK1 domain2
T3 sequence (Q15418 whole entry, the tested form may be a part): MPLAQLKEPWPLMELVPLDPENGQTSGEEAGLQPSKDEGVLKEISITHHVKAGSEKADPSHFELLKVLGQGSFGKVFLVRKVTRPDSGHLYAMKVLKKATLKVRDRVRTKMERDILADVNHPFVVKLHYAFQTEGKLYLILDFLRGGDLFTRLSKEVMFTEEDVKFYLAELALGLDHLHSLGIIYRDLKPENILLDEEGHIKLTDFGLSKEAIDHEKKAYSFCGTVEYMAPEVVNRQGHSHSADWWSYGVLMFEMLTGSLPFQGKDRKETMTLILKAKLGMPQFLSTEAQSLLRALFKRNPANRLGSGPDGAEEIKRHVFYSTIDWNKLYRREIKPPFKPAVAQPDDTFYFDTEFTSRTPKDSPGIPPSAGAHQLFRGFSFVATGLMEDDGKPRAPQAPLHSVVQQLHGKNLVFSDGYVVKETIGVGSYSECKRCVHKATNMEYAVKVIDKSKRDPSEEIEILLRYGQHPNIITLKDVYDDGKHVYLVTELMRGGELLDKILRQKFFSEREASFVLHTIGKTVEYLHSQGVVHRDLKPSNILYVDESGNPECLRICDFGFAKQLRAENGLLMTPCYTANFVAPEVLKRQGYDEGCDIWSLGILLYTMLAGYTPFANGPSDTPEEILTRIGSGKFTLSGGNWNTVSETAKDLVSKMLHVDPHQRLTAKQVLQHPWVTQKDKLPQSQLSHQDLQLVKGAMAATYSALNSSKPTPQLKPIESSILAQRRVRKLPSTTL
As to the kind of experiment: KiNativ, OCI cells live cell. It is filed as cell-based. Conditions: 2 h, labeling site Lys2, peptide […].

In the next series the target is YANK3 (Homo sapiens, UniProt Q86UX6). The series can be described thus: KiNativ, OCI cells live cell. Format: cell-based. Conditions: 2 h, labeling site Lys2, peptide […].
YANK3, sequence (Q86UX6 whole entry): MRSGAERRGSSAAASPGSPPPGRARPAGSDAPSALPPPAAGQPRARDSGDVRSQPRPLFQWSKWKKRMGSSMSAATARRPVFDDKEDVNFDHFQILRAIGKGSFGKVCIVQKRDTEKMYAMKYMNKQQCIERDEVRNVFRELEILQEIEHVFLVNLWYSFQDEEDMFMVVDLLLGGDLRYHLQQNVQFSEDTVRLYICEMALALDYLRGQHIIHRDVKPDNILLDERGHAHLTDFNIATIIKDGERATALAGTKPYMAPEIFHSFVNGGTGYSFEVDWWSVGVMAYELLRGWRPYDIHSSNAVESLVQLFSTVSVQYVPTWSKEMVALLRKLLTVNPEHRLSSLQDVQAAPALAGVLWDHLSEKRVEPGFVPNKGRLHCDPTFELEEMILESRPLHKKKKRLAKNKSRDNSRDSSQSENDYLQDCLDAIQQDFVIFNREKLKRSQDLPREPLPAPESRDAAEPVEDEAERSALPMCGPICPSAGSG

For orientation: inhibition means the relative decrease from the control value, in per cent.

AKT1, sequence (P31749 whole entry): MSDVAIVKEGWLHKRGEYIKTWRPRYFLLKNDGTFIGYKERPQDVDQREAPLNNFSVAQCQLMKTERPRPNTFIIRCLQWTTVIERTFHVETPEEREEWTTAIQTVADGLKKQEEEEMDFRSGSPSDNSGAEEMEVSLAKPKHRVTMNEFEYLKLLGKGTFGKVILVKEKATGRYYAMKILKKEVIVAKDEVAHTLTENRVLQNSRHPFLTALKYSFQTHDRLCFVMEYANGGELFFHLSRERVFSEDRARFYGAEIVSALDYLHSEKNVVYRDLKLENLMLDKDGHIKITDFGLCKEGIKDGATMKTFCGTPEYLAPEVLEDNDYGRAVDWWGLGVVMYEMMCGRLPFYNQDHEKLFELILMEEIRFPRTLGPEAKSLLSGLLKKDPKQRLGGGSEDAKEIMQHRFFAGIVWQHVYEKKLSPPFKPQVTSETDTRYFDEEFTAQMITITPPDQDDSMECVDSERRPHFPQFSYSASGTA

As to `CN1CCN(Cc2ccc(Nc3ncc(Cl)c(Nc4ccccc4S(=O)(=O)N(C)C)n3)cc2)CC1` [TP-0903], the “Concentrations inhibiting viability of fibroblasts” value in the series with dermal fibroblasts is recorded as at least 250 nM. Moreover, the “Cell surface expression of CD11b” value in [1] was “increased”. Besides, the inhibition at 0.1 µM on AKT1 was -17.1%; against BRAF, -3.1%; at IRAK3 (labeling site Lys1, peptide VEIQNLTYAVKLFK) it was 87.9%; against IRAK3 (labeling site Protein Kinase Domain, peptide SHLEHQSCTINMTSSSSKHLWYMPEEYIR) it was 94.9%; against LKB1, 25.7%; against MAP3K6, -13.5%. Moreover, the inhibition at 0.1 µM was -29.6% against MLKL, 8.6% against RSK1 domain2 and 8.4% against YANK3.

These data come from paper PMC7714403 (JCI Insight, 2020).
